From article PMC9247985, “Accessing Diverse Pyridine-Based Macrocyclic Peptides by a Two-Site Recognition Pathway” (Journal of the American Chemical Society, 2022)
Where a SMILES comes first, the peptide text is derived from it. Where no end group is shown, it is not given here. The star is where a group is joined. 5FAM = O=C1OC2(c3ccc(O)cc3Oc3cc(O)ccc32)c2ccc(C(=O)*)cc21

Key:
MBP-MroD = MBP-MroD (Micromonospora rosaria, UniProt A0A136PPB2); assay: biochemical
From the text: Experiments were done in triplicates. Stock
(1 picture or pasted object on this page, not shown here)

MroB = settings: read-out: IC50 MroB; SEM
Protocol: Competition fluorescence polarization. The initial sample contained 80 nM enzyme, 5 nM labeled ∆12M r oA1
peptide, and competitor peptide (concentration is from 20 µM to 100 µM, depending on the experiment). In a bl a ck
subsequent wells containing 80 nM MBP-MroB and 5nM labeled ∆12MroA1. The plate was covered from light and
(§1) incubated at room temperat ur e for 10 min, and then fluorescence polarization was measured (Biotek Synergy H4
hybrid reader) using the following filter (Ex: Em – 485 nm / 20 nm: 51 8 nm / 20 nm ). The obtained data was converted
(§2) to anisotropy value and plotted against peptide concentration, and fitted to dose-response function:
Where: y = anisotropy value, A1 = minimum anisotropy, A2 = maximum anisotropy, p = Hill’s coefficient, x =
competitor concentration. The obtained IC50 was used to calculate inhibitor constant K I using the following equation: 12 𝐾𝐾𝐾𝐾 = 𝐼𝐼𝐼𝐼50)− 𝐾𝐾𝐾𝐾 ( 𝑦𝑦𝑦𝑦 + 2)
(§3) Where: Lt is labeled peptide concentration, y = initial bound/free r at i o of the labeled peptide before adding competitor,
and Kd is the binding constant.
(§4) In cases where competitor concentration wa s not high enough to achieve a plateau, the competition curve was fitted
with minimum anisotropy fixed to be the same value as the anisotropy value of t he free probe solution. This calculation […]
Competitive fluorescence polarization […]

MroD = MroD (Micromonospora rosaria, UniProt A0A136PPB2); settings: read-out: IC50 MroD; SEM
Sequence of MroD (A0A136PPB2 entry or part of it): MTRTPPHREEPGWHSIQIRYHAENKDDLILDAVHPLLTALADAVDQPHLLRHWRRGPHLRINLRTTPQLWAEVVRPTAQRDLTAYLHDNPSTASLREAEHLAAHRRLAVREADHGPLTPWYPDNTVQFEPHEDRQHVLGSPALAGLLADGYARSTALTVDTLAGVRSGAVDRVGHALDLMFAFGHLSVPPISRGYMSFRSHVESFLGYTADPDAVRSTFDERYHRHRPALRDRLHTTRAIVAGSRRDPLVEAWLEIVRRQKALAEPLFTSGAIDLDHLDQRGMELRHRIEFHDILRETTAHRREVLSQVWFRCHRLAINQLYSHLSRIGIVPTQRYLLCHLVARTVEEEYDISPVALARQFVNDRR
Protocol: Competition fluorescence polarization.
peptide, and competitor peptide (concentration is from 20 µM to 100 µM, depending on the experiment).
subsequent wells containing 80 nM MBP-MroB and 5nM labeled ∆12MroA1.
as §1
hybrid reader) using the following filter (Ex: Em – 485 nm / 20 nm: 51 8 nm / 20 nm ).
as §2
competitor concentration.
as §3
and Kd is the binding constant.
as §4
with minimum anisotropy fixed to be the same value as the anisotropy value of t he free probe solution.
assumed that the labeled peptide was completely displaced from the enzyme binding pocket at a very high
concentration of the competitor.
The specific minimum anisotropy used in this experiment for both MroB and MroD wa s 65.
traces of MroA1 variants binding to MroB.
These peptides were titrated against MBP-MroD (80 nM) complexed with f luorescein-∆12MroA1 (5 nM).
standard deviation (n=3). Errors on Ki and IC50 values are the standard error of the mean generated through regr essi on
polarization traces of MroA1 variants binding to M BP -MroD.
∆12MroA1(5 nM ) . Error bars represent standard deviation (n=3). Errors on Ki a nd IC50 values are the standard error
of the mean generated through regression analysis.

MroB/C = MroB/C dehydration (Dha formation) of in vitro translated MroA2 variants, MALDI-TOF-MS; assay type: biochemical, Micromonospora rosaria; settings: Table S6, MroA2 multi-site variants, 2 μM MBP-MroB, 2 μM MBP-MroC, 1 h room temperature
Protocol: in 2 mM NaOAc pH 5.2, and the concentration was assayed using 260 nm absorbance. This tRNA Glu (CUC) was t he n used in the MroBC-catalyzed dehydration assay.
In vitro translation and enzymati c as s ays (dehydration and cyclization). In a 0.65 mL protein low-binding Eppendorf tube placed on ice, 0.75 μL of purified mroA variant template DNA was mixed with 0.75 μL of Solution B and 1 μL of Solution A of PURExpress I n vi t ro Protein Synthesis Kit (E6800L) purchased from NEB (total volume of reaction is 2.5 μL ). The translation reactions were performed at 37°C for 1 hon an aluminum block.
For a full MroBCD substrate scope investigation, a total translation volume for each variant of 7.5 μL was performed.
1.5 μL of 90 mM i odoacet am i de (IAA) was added to quench d ithiothreitol (DTT) in the translation reaction mixture, a thiol -based nucleophile that can react with electrophilic dehydroalanines generated from MroBC-cat al yzed dehydration assays. […]
In the 6 μL part, 10.2 μL of the enzyme mix containing enzymes and cofactors was added along with 1.8 μ L 90 mM ATP (pH 7.5) ,which wasused to initiate the reaction . The enzyme mix was made by adding these components in the following order: HEPES pH 7.5, MgCl2, glutamate, T. bispora tRNAGl u(CUC), thermostable inorganic pyrophosphatase (TIPP), TEV (L56V/S135G/S219V) (w/w ratio with a total amount of MBP-tagged protein = 1: 10), MBP-MroB, MBP-MroC, and T. bispora GluRS. The enzyme mix was incubated 25 min at room temper at ure before adding to the translation product to facilitate in situ TEV -catalyzed cleavage of MBP from MBP -MroB and MBP - MroC. The enzymatic reaction proceeded for 1 h at room temperature. Overal l , the concentration of components in the 18 μL reaction mix is as follows : 50 mM HEPES pH 7.5, 5 mM MgCl2, gl utamate 1 mM, 3 μM T. bi s por a tRNAGlu, 1 μM T. bispora GluRS, 2 μM MBP-MroB, 2 μM MBP-MroC, […], 0.027 U/μL TIPP, and 5 mM IAA. In addition, the […] was incubated with the same buffer lacking enzymes and tRNA as a translation control.
After incubation, the enzyme reaction (18 μ L) was split into two equal parts. One part was treated with MBP-MroD such that the final concentration of MBP-MroD is 3 μM, and the other part was added the same volume but with buffer lacking MBP-MroD (50 mM HEPES, 300 mM NaCl, 2.5% glycerol, 0.5 mM TCEP).The reaction further proceeded for 1.5 h at room temperature. All reaction mixture was then desalted with solid- phase extraction using Ziptip with 0.6 μL C18 resin (EMD Milli por e ) and crystallized on an MTP384 steel target plate using either sa t ur at e d sina pi c ac i d or 50 mg/mL Super DHB [ dissolved in 60% acetonitrile and 0.1% trifluoroacetic acid (TFA )] as the matrix. T he crystallized spots were then analyzed using MALDI-TOF-MS (Bruker Ultraflex). The external standard for MALDI - TOF-MS analysis is ProteoMass Peptide and Protein MALDI -MS Calibration Kit ( Si g ma ) In this work, TEV was used in every variant tested. […]

Sequence of MBP-MroD (A0A136PPB2 1-366): as the sequence (A0A136PPB2 entry or part of it) above

| Molecule | IC50 (MroD) [µM] | Dha formation (MroB/C) | also measured |
| --- | --- | --- | --- |
| CC[C@H](C)[C@H](NC(=O)[C@@H](NC(=O)[C@H](Cc1c[nH]c2ccccc12)NC(=O)[C@H](CO)NC(=O)CNC(=O)[C@H](CC(C)C)NC(=O)[C@H](Cc1c[nH]c2ccccc12)NC(=O)CNC(=O)[C@H](CO)NC(=O)[C@H](C)NC(=O)CNC(=O)[C@@H](NC(=O)[C@H](CCC(=O)O)NC(=O)[C@@H](NC(=O)[C@H](CC(N)=O)NC(=O)CNC(=O)[C@H](CC(C)C)NC(=O)CNC(=O)CNC(=O)[C@@H](NC(=O)[C@H](CO)NC(=O)[C@H](CC(C)C)NC(=O)[C@H](C)NC(=O)[C@H](C)NC(=O)[C@H](CC(C)C)NC(=O)[C@H](CCC(=O)O)NC(=O)[C@H](CCC(=O)O)NC(=O)[C@H](CC(=O)O)NC(=O)[C@@H](NC(=O)[C@H](C)NC(=O)[C@H](CC(C)C)NC(=O)[C@H](CC(=O)O)NC(=O)[C@H](CC(C)C)NC(=O)[C@H](CC(=O)O)NC(=O)[C@@H](NC(=O)[C@@H](NC(=O)[C@H](CC(=O)O)NC(=O)[C@H](CC(C)C)NC(=O)[C@H](CC(=O)O)NC(=O)[C@H](CO)NC(=O)c1ccc2c(c1)C(=O)OC21c2ccc(O)cc2Oc2cc(O)ccc21)[C@@H](C)CC)C(C)C)C(C)C)C(C)C)[C@@H](C)O)C(C)C)C(C)C)C(=O)O [fluorescein-Δ12MroA1] (5FAM-SDLDIVDLDLAVDEELAALSVGGLGNTEVGASGWLGSWVI-OH) | – | – | Kd (MBP-MroD): ~0.012 µM |
| CC[C@H](C)[C@H](NC(=O)[C@H](CC(=O)O)NC(=O)[C@H](CC(C)C)NC(=O)[C@H](CC(=O)O)NC(=O)[C@@H](N)CO)C(=O)N[C@H](C(=O)N[C@@H](CC(=O)O)C(=O)N[C@@H](CC(C)C)C(=O)N[C@@H](CC(=O)O)C(=O)N[C@@H](CC(C)C)C(=O)N[C@@H](C)C(=O)N[C@H](C(=O)N[C@@H](CC(=O)O)C(=O)N[C@@H](CCC(=O)O)C(=O)N[C@@H](CCC(=O)O)C(=O)N[C@@H](CC(C)C)C(=O)N[C@@H](C)C(=O)N[C@@H](C)C(=O)N[C@@H](CC(C)C)C(=O)N[C@@H](CO)C(=O)N[C@H](C(=O)NCC(=O)NCC(=O)N[C@@H](CC(C)C)C(=O)NCC(=O)N[C@@H](CC(N)=O)C(=O)N[C@H](C(=O)N[C@@H](CCC(=O)O)C(=O)N[C@H](C(=O)NCC(=O)N[C@@H](C)C(=O)N[C@@H](CO)C(=O)NCC(=O)N[C@@H](Cc1c[nH]c2ccccc12)C(=O)N[C@@H](CC(C)C)C(=O)NCC(=O)N[C@@H](CO)C(=O)N[C@@H](Cc1c[nH]c2ccccc12)C(=O)N[C@H](C(=O)N[C@H](C(=O)OC)[C@@H](C)CC)C(C)C)C(C)C)[C@@H](C)O)C(C)C)C(C)C)C(C)C [Δ12MroA1-COOMe] (H-SDLDIVDLDLAVDEELAALSVGGLGNTEVGASGWLGSWVI-OMe) | 0.4 ± 0.06 | – | IC50 (MroB): 4.2 ± 1.7 µM |
| SDLDIVDLDLAVDEELAALSVGGLGNTEVGA [Δ12MroA1 leader] | 16 ± 4.4 | – | – |
| SDLDIVDLDLAVDEELAALSVGGLGNTEVGASGWLGSGVI [Δ12MroA1-W7G] | 2.4 ± 0.3 | – | – |
| SDLDIVDLDLAVDEELAALSVGGLGNTEVGASGWLGSWGI [Δ12MroA1-V8G] | 1.7 ± 0.4 | – | – |
| SDLDIVDLDLAVDEELAALSVGGLGNTEVGASGWLGSWVG [Δ12MroA1-I9G] | 0.91 ± 0.09 | – | – |
| SDLDIVDLDLAVDEELAALSVGGLGNTEVGASGWLGSWVI [Δ12MroA1] | 0.09 ± 0.02 | – | – |
| SGDAMRWRSWLI [53-A8R, Arg variant of multi-site variant 53] | – | 2 Dha | – |
| SGGYRPRSWLI [38-H7R, Arg variant of multi-site variant 38] | – | 2 Dha | – |
| SGHYKPQRSWLI [55-A8R, Arg variant of multi-site variant 55] | – | 2 Dha | – |
| SGIAKEVRSWLI [47-Q8R, Arg variant of multi-site variant 47] | – | 2 Dha | – |
| SGKALERSWLI [29-F7R, Arg variant of multi-site variant 29] | – | M ix of 1, 2 Dha | – |
| SGLQHGKRSWLI [52-Y8R, Arg variant of multi-site variant 52] | – | 2 Dha | – |
| SGQGRNRSWLI [24-V7R, Arg variant of multi-site variant 24] | – | 2 Dha | – |
| SGREFARSWLI [35-N7R, Arg variant of multi-site variant 35] | – | 2 Dha | – |
| SGRYAGRSWLI [39-W7R, Arg variant of multi-site variant 39] | – | 2 Dha | – |
| SGYDRQRSWLI [56-Y7R, Arg variant of multi-site variant 56] | – | 2 Dha | – |
| SGYHFHNRSWLI [54-V8R, Arg variant of multi-site variant 54] | – | 2 Dha | – |
